Source: US20250206761A1, “HALOINDOLE MACROCYCLIC COMPOUNDS FOR THE TREATMENT OF CANCER” (Hoffmann-La Roche Inc., priority 2022, published 2025)

How the values were obtained:
KRAS G12C-BRAF complex [1] = target: T1, KRAS G12C-BRAF complex (Homo sapiens (Human), UniProt P01116+P62937, G12C); assay: KRAS G12C-BRAF NanoBit assay; format: cell-based; details: HEK293 cells, 3 hours of incubation
Procedure, shortened: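 Stable HEK293 pool co-expressing SmBit-KRAS G12C and BRAF RBD-LgBit; 10,000 cells/well incubated 3 h with compound, 16-point 3-fold dilution from 30 μM final. Live-cell Nano-Glo substrate added, luminescence read at 20 min; disruption seen as luminescence decrease vs DMSO.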

[2] = tested on: phosphorylation of ERK, KRAS G12D in AGS cells; assay: pERK inhibition assay, KRAS G12D; format: cell-based, human; details: Homo sapiens, 4 hours
Procedure, shortened: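 Read-out is OD450 from a TMB colorimetric cell ELISA using a phospho-ERK-specific antibody and HRP-linked secondary. Compounds were incubated with the cells for 4 hours at 0.5% DMSO before fixation and permeabilization. IC50 values come from 4-parameter concentration-response fitting.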

[3] = target: KRAS G12V binding to BRAF (Homo sapiens (Human), UniProt P01116+P62937, G12V); assay: KRAS-BRAF with CYPA (500 nM) interaction assay (TR-FRET), G12V; format: biochemical
Procedure, shortened: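 A TR-FRET assay measured how compound, in the presence of CYPA, disrupts binding of GMPPNP-loaded 6His-KRAS G12V to BRAF. The buffer contained 25 mM HEPES PH=7.4, 0.002% Tween20, 0.1% BSA, 100 mM NaCl, 5 mM MgCl2 and 10 μM GMPPNP. Compounds ran as a 16-point 3-fold dilution series from 10 μM for 3 hours.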

KRAS G12C-BRAF complex [4] = target: T1, KRAS G12C-BRAF complex; assay: KRAS-BRAF with CYPA (500 nM) interaction assay (TR-FRET), G12C; format: biochemical

T1 sequence (P01116-2 other isoform, or with tags, fused parts or gaps G12C): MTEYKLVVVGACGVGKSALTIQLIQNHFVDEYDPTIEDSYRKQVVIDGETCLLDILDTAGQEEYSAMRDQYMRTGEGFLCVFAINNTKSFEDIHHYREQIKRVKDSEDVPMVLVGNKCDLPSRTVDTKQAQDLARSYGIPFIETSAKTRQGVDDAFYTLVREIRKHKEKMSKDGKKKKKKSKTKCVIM
T1 sequence (P62937 whole entry): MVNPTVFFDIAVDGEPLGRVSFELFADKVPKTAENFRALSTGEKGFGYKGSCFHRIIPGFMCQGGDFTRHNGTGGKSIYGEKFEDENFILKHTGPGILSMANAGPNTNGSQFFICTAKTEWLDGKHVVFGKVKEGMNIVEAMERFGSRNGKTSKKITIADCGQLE
KRAS G12V binding to BRAF, sequence (P01116-2 other isoform, or with tags, fused parts or gaps G12V): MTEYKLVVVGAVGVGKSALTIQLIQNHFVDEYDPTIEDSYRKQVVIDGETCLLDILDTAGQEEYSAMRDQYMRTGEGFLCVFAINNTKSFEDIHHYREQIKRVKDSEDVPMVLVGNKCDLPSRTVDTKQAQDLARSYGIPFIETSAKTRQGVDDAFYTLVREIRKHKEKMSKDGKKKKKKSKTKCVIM
KRAS G12V binding to BRAF, sequence (P62937 whole entry): as the sequence (P62937 whole entry) above

## CO[C@@H](C)c1ncc(N2CCN(C)CC2)cc1-c1c2c3cc(c(F)cc3n1CC(F)(F)F)-c1csc(n1)C[C@H](NC(=O)[C@H](C(C)C)N1CCC[C@]3(CCN(C(=O)[C@H](F)Cl)C3)C1=O)C(=O)N1CCC[C@H](N1)C(=O)OCC(C)(C)C2 (single isomer, unassigned) [Example 18]
KRAS G12C-BRAF complex [1]
  IC50: 12 nM
[2]
  IC50: 26 nM
[3]
  IC50: 3330 nM
KRAS G12C-BRAF complex [4]
  IC50: 71 nM

## CC(C)[C@@H](C(=O)N[C@H]1Cc2cc(O)cc(c2)-c2ccc3c(C(C)(C)C#N)cn(c3c2)CC(C)(C)COC(=O)[C@@H]2CCCN(N2)C1=O)N1CCC2(CN(C(=O)CCl)C2)C1=O [RM44, reference compound]
KRAS G12C-BRAF complex [1]
  IC50: 11700 nM
[2]
  IC50: > 10000 nM
[3]
  IC50: > 10000 nM
KRAS G12C-BRAF complex [4]
  IC50: 17 nM

## CC(C)[C@@H](C(=O)N[C@H]1Cc2cc(O)cc(c2)-c2ccc3c(C(C)(C)C#N)cn(c3c2)CC(C)(C)COC(=O)[C@@H]2CCCN(N2)C1=O)N1CCCC2(CCN(C(=O)CCl)C2)C1=O (stereo partly drawn) [RM351, reference compound]
KRAS G12C-BRAF complex [1]
  IC50: 1780 nM
[2]
  IC50: > 10000 nM
[3]
  IC50: > 10000 nM
KRAS G12C-BRAF complex [4]
  IC50: > 10000 nM
